Laboratory results taken from patent publication US20190015421A1, “Biomarkers for Treating Cancer with Apilimod” (LAM Therapeutics, Inc., priority 2016, published 2019).

Assays:
769-P = experiment: apilimod 5 day assay in clear cell RCC line 769-P; assay type: cell-based; settings: Homo sapiens, 120 h, 769-P clear cell RCC line, VHL mutant, read-out: EC50 (nM) (avg, n = 2)
RCC-MF = experiment: apilimod 5 day assay in clear cell RCC line RCC-MF; assay type: cell-based; settings: 120 h, read-out: EC50 (nM) (avg, n = 2)
RCC-ER = experiment: apilimod 5 day assay in clear cell RCC line RCC-ER; assay type: cell-based; settings: 120 h, VHL mutant, read-out: EC50 (nM) (avg, n = 2)
Text: FIG. 7B: example dose response of renal cell line RCC-ER and normal colon cell line CCD841CoN to apilimod in a 5 day assay.

RCC-FG2 = experiment: apilimod 5 day assay in clear cell RCC line RCC-FG2; assay type: cell-based; settings: 120 h, VHL mutant, read-out: EC50 (nM) (avg, n = 2)
RCC-JF = experiment: apilimod 5 day assay in clear cell RCC line RCC-JF; assay type: cell-based; settings: 120 h, VHL mutant, read-out: EC50 (nM) (avg, n = 2)
786-0 = experiment: apilimod 5 day assay in clear cell RCC line 786-0; assay type: cell-based; settings: Homo sapiens, 120 h, 786-0 clear cell RCC line, VHL mutant, read-out: EC50 (nM) (avg, n = 2)
A-704 = experiment: apilimod 5 day assay in clear cell RCC line A-704; assay type: cell-based; settings: Homo sapiens, A704, 120 h, A-704 clear cell RCC line, VHL mutant, read-out: EC50 (nM) (avg, n = 2)
RCC-JW = experiment: apilimod 5 day assay in clear cell RCC line RCC-JW; assay type: cell-based; settings: 120 h, read-out: EC50 (nM) (avg, n = 2)
KMRC-1 = experiment: apilimod 5 day assay in clear cell RCC line KMRC-1; assay type: cell-based; settings: 120 h, KMRC-1 clear cell RCC line, VHL mutant, read-out: EC50 (nM) (avg, n = 2)
KMRC-3 = experiment: apilimod 5 day assay in clear cell RCC line KMRC-3; assay type: cell-based; settings: 120 h, KMRC-3 clear cell RCC line, VHL mutant, read-out: EC50 (nM) (avg, n = 2)
Caki-1 = experiment: apilimod 5 day assay in clear cell RCC line Caki-1; assay type: cell-based; settings: Homo sapiens, 120 h, Caki-1 clear cell RCC line, VHL WT, read-out: EC50 (nM) (avg, n = 2)
ACHN = experiment: apilimod 5 day assay in clear cell RCC line ACHN; assay type: cell-based; settings: Homo sapiens, 120 h, VHL WT, read-out: EC50 (nM) (avg, n = 2)
Caki-2 = experiment: apilimod 5 day assay in clear cell RCC line Caki-2; assay type: cell-based; settings: Homo sapiens, 120 h, Caki-2 clear cell RCC line, VHL mutant, read-out: EC50 (nM) (avg, n = 2)
A498 = experiment: apilimod 5 day assay in clear cell RCC line A498; assay type: cell-based; settings: Homo sapiens, 120 h, VHL mutant, read-out: EC50 (nM) (avg, n = 2)
[1] = system: CA46 (TFEB-deficient B-NHL); experiment: apilimod dose response in CA46 pools over-expressing GFP control or TFEB; assay type: cell-based; settings: CA46 pools over-expressing TFEB vs GFP control, 10-point dose response, 72 hrs
Method: FIG. 6: stable CA46 (TFEB-deficient B-NHL) pools over-expressing either GFP control or TFEB were treated with 10-point apilimod dose response for 72 hrs.
To further explore the role of TFEB in the cellular response to apilimod, the expression levels of TFEB across different cancer cell lines from the Cancer Cell Line Encyclopedia (CCLE) database (Barretina et al., 2012) were extracted and examined to determine whether there was a correlation between TFEB expression and the sensitivity of the cell line to apilimod. […] To test whether the increased TFEB expression contributes to the apilimod sensitivity observed in B-NHL, we overexpressed TFEB in the TFEB-deficient B-NHL cell line CA46.

[2] = system: clear cell RCC cell lines (n=5); experiment: anti-proliferative activity versus standard of care drugs, 5 day assays; assay type: cell-based; settings: versus axitinib, sorafenib, pazopanib, sunitinib and rapamycin
Text: FIG. 8: anti-proliferative activity of apilimod versus standard of care drugs in clear cell RCC cell lines (n=5) in 5 day assays. *Values denote the geometric mean.

TFEB = TFEB phosphorylation status and subcellular localization by immunoblotting; assay type: cell-based; settings: SU-DHL-6 cells, apilimod 63 nM, 2 hr
Method: FIG. 4: nuclear and cytoplasmic levels of TFEB protein assayed by immunoblotting in SU-DHL-6 cells treated with apilimod (63 nM) for 2 hr.
TFEB is a master regulator of lysosomal gene expression and is activated by dephosphorylation followed by nuclear translocation (Roczniak-Ferguson et al., 2012; Settembre et al., 2012). Accordingly, we next looked at TFEB phosphorylation status and subcellular localization following apilimod treatment.

SU-DHL-6 and SU-DHL-10 = experiment: LysoTracker staining of the acidified compartment; assay type: cell-based; settings: 200 nM apilimod, 24 and 48 hrs, compared to DMSO
Method: FIG. 3: LysoTracker staining in SU-DHL-6 and SU-DHL-10 for 24 and 48 hrs after treatment with 200 nM (blue) apilimod compared to DMSO treated control (red).
(§1) To further understand apilimod's cellular mechanism of action, we performed a global gene expression analysis of the changes occurring after apilimod treatment of two non-Hodgkins B cell lymphoma (B-NHL) tumor cell lines, SU-DHL-10 and WSU-DLCL2. […] We next performed a gene ontology analysis. […] We next used LysoTracker staining to examine the acidified compartment of the cells.

[3] = system: SU-DHL-10 and WSU-DLCL2 B-NHL lines; experiment: global gene expression and gene ontology analysis; assay type: cell-based; settings: SU-DHL-10 and WSU-DLCL2 after apilimod treatment
Text: FIG. 1: heatmap representation of gene expression changes in SU-DHL-10 and WSU-DLCL2 B-NHL lines upon apilimod treatment.
as §1

[4] = system: RCC having a VHL mutation; experiment: apilimod cytotoxicity in RCC lines by VHL status; assay type: cell-based; settings: clear cell RCC lines of Table 2, 5 day assay
TSC null cells = settings: mTOR pathway constitutively active; previously shown; cited from earlier work
[5] = system: synovial IL-12 and IL-23 expression; settings: patients with rheumatoid arthritis; Krauz et al. 2012; cited from earlier work
[6] = active Crohn's disease; Sands et al. 2010; cited from earlier work

EC50 (769-P): 44 nM
EC50 (RCC-MF): 8 nM
EC50 (RCC-ER): 9 nM
EC50 (RCC-FG2): 32 nM
EC50 (RCC-JF): 60 nM
EC50 (786-0): 71 nM
EC50 (A-704): 11 nM
EC50 (RCC-JW): 27 nM
EC50 (KMRC-1): 4 nM
EC50 (KMRC-3): 39 nM
EC50 (Caki-1): 2280 nM
EC50 (ACHN): 9040 nM
EC50 (Caki-2): 3360 nM
EC50 (A498): 84000 nM
SMILES: Cc1cccc(/C=N/Nc2cc(N3CCOCC3)nc(OCCc3ccccn3)n2)c1 [apilimod]
enhancement of apilimod sensitivity by TFEB over-expression [1]: greater than 50 fold
activity against clear cell RCCs relative to standard of care treatments [2]: superior activity
TFEB dephosphorylation and nuclear translocation (TFEB): induces TFEB dephosphorylation and nuclear translocation
acidified compartment (LysoTracker staining) (SU-DHL-6 and SU-DHL-10): expansion of the acidified compartment
gene ontology of genes induced by apilimod [3]: clear enrichment of lysosomal genes
cytotoxicity by VHL status [4]: preferentially cytotoxic in RCC having a VHL mutation
cytotoxicity in TSC null cells (TSC null cells): highly cytotoxic
effect on synovial IL-12 and IL-23 expression [5]: failed to alter synovial IL-12 and IL-23 expression
efficacy over placebo [6]: did not demonstrate efficacy over placebo
tolerability [6]: well tolerated
